Experimental data published in PubChem BioAssay AID1963426 (Molecular Pharmacology Branch, DTP, NCI, 2024).

Test system: 186277-243-T-J2-PDC complex spheroid growth, % test/control
Assay: Anticancer human tumor 186277-243-T-J2-PDC patient-derived colon adenocarcinoma cell line growth inhibition [Asc]
Settings: for IC50: curve of first compound; for viability, T/C: stronger effect = lower value; active = viability on the fitted dose curve at most 10% of control; inactive = the rest
Outline: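 Complex spheroids combining tumor cells with HUVEC endothelial cells and human MSCs, at 37 degrees C, 5% CO2; agents tested alone or combined, half-log dilutions from at or near clinical Cmax, or 10 microM if Cmax unknown.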

[1] = second compound 0.01 µM, first compound 0.00316 µM
[2] = second compound 0.01 µM, first compound 0.01 µM
[3] = second compound 0.01 µM, first compound 0.0316 µM
[4] = second compound 0.01 µM, first compound 0.1 µM
[5] = second compound 0.01 µM, first compound 0.316 µM
[6] = second compound 0.01 µM, first compound 1 µM
[7] = second compound 0.0316 µM, first compound 0.00316 µM
[8] = second compound 0.0316 µM, first compound 0.01 µM
[9] = second compound 0.0316 µM, first compound 0.0316 µM
[10] = second compound 0.0316 µM, first compound 0.1 µM
[11] = second compound 0.0316 µM, first compound 0.316 µM
[12] = second compound 0.0316 µM, first compound 1 µM
[13] = second compound 0.1 µM, first compound 0.00316 µM
[14] = second compound 0.1 µM, first compound 0.01 µM
[15] = second compound 0.1 µM, first compound 0.0316 µM
[16] = second compound 0.1 µM, first compound 0.1 µM
[17] = second compound 0.1 µM, first compound 0.316 µM
[18] = second compound 0.1 µM, first compound 1 µM
[19] = second compound 0.316 µM, first compound 0.00316 µM
[20] = second compound 0.316 µM, first compound 0.01 µM
[21] = second compound 0.316 µM, first compound 0.0316 µM
[22] = second compound 0.316 µM, first compound 0.1 µM
[23] = second compound 0.316 µM, first compound 0.316 µM
[24] = second compound 0.316 µM, first compound 1 µM
[25] = second compound 1 µM, first compound 0.00316 µM
[26] = second compound 1 µM, first compound 0.01 µM
[27] = second compound 1 µM, first compound 0.0316 µM
[28] = second compound 1 µM, first compound 0.1 µM
[29] = second compound 1 µM, first compound 0.316 µM
[30] = second compound 1 µM, first compound 1 µM
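Also: spheroids exposed to agents for 7 days.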
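For viability, T/C in this document: 100% = DMSO vehicle control wells.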

CCN1CCN(Cc2ccc(Nc3ncc(F)c(-c4cc(F)c5nc(C)n(C(C)C)c5c4)n3)nc2)CC1 + CNC(C)C(=O)NC1CN(S(=O)(=O)c2cccc(S(=O)(=O)N3CCC4CCC(C(=O)NC(c5ccccc5)c5ccccc5)N4C(=O)C(NC(=O)C(C)NC)C3)c2)CCC2CCC(C(=O)NC(c3ccccc3)c3ccccc3)N2C1=O
inactive: viability, T/C [1] 85.5% | viability, T/C [2] 110% | viability, T/C [3] 109% | viability, T/C [4] 129% | viability, T/C [5] 123% | viability, T/C [6] 114% | viability, T/C [7] 111% | viability, T/C [8] 90.2% | viability, T/C [9] 114% | viability, T/C [10] 114% | viability, T/C [11] 143% | viability, T/C [12] 120% | viability, T/C [13] 112% | viability, T/C [14] 120% | viability, T/C [15] 118% | viability, T/C [16] 132% | viability, T/C [17] 143% | viability, T/C [18] 107% | viability, T/C [19] 107% | viability, T/C [20] 108% | viability, T/C [21] 126% | viability, T/C [22] 131% | viability, T/C [23] 134% | viability, T/C [24] 110% | viability, T/C [25] 120% | viability, T/C [26] 113% | viability, T/C [27] 118% | viability, T/C [28] 138% | viability, T/C [29] 148% | viability, T/C [30] 120%
> 1000 nM: IC50 (second compound 0.01 µM) | IC50 (second compound 0.0316 µM) | IC50 (second compound 0.1 µM) | IC50 (second compound 0.316 µM) | IC50 (second compound 1 µM)

NC(=O)C(=Cn1cnc(-c2cc(C(F)(F)F)cc(C(F)(F)F)c2)n1)c1cncnc1 + CNC(C)C(=O)NC1CN(S(=O)(=O)c2cccc(S(=O)(=O)N3CCC4CCC(C(=O)NC(c5ccccc5)c5ccccc5)N4C(=O)C(NC(=O)C(C)NC)C3)c2)CCC2CCC(C(=O)NC(c3ccccc3)c3ccccc3)N2C1=O
204 nM: IC50 (second compound 0.0316 µM)
194 nM: IC50 (second compound 0.316 µM)
192 nM: IC50 (second compound 0.01 µM)
210 nM: IC50 (second compound 0.1 µM)
178 nM: IC50 (second compound 1 µM)
inactive: viability, T/C (second compound 0.01 µM, first compound 0.000949 µM) 127% | viability, T/C (second compound 0.01 µM, first compound 0.003 µM) 102% | viability, T/C (second compound 0.01 µM, first compound 0.00949 µM) 98.9% | viability, T/C (second compound 0.01 µM, first compound 0.03 µM) 128% | viability, T/C (second compound 0.01 µM, first compound 0.0949 µM) 90.3% | viability, T/C (second compound 0.01 µM, first compound 0.3 µM) 24.3% | viability, T/C (second compound 0.0316 µM, first compound 0.000949 µM) 105% | viability, T/C (second compound 0.0316 µM, first compound 0.003 µM) 113% | viability, T/C (second compound 0.0316 µM, first compound 0.00949 µM) 93.8% | viability, T/C (second compound 0.0316 µM, first compound 0.03 µM) 109% | viability, T/C (second compound 0.0316 µM, first compound 0.0949 µM) 96.9% | viability, T/C (second compound 0.0316 µM, first compound 0.3 µM) 26.4% | viability, T/C (second compound 0.1 µM, first compound 0.000949 µM) 114% | viability, T/C (second compound 0.1 µM, first compound 0.003 µM) 109% | viability, T/C (second compound 0.1 µM, first compound 0.00949 µM) 113% | viability, T/C (second compound 0.1 µM, first compound 0.03 µM) 118% | viability, T/C (second compound 0.1 µM, first compound 0.0949 µM) 107% | viability, T/C (second compound 0.1 µM, first compound 0.3 µM) 24.6% | viability, T/C (second compound 0.316 µM, first compound 0.000949 µM) 103% | viability, T/C (second compound 0.316 µM, first compound 0.003 µM) 107% | viability, T/C (second compound 0.316 µM, first compound 0.00949 µM) 110% | viability, T/C (second compound 0.316 µM, first compound 0.03 µM) 111% | viability, T/C (second compound 0.316 µM, first compound 0.0949 µM) 97.8% | viability, T/C (second compound 0.316 µM, first compound 0.3 µM) 20.3% | viability, T/C (second compound 1 µM, first compound 0.000949 µM) 93.6% | viability, T/C (second compound 1 µM, first compound 0.003 µM) 108% | viability, T/C (second compound 1 µM, first compound 0.00949 µM) 113% | viability, T/C (second compound 1 µM, first compound 0.03 µM) 111% | viability, T/C (second compound 1 µM, first compound 0.0949 µM) 85.8% | viability, T/C (second compound 1 µM, first compound 0.3 µM) 20.2%

O=C(c1ccc(F)c(F)c1Nc1ccc(I)cc1F)N1CC(O)([C@@H]2CCCCN2)C1 + CNC(C)C(=O)NC1CN(S(=O)(=O)c2cccc(S(=O)(=O)N3CCC4CCC(C(=O)NC(c5ccccc5)c5ccccc5)N4C(=O)C(NC(=O)C(C)NC)C3)c2)CCC2CCC(C(=O)NC(c3ccccc3)c3ccccc3)N2C1=O
178 nM: IC50 (second compound 0.01 µM)
85.4 nM: IC50 (second compound 1 µM)
176 nM: IC50 (second compound 0.0316 µM)
inactive: viability, T/C [1] 90.3% | viability, T/C [2] 89.6% | viability, T/C [3] 106% | viability, T/C [4] 78.4% | viability, T/C [5] 21.6% | viability, T/C [6] 11.9% | viability, T/C [7] 110% | viability, T/C [8] 95.9% | viability, T/C [9] 115% | viability, T/C [10] 82.2% | viability, T/C [11] 17% | viability, T/C [12] 10.4% | viability, T/C [13] 107% | viability, T/C [14] 104% | viability, T/C [15] 98.8% | viability, T/C [16] 61.7% | viability, T/C [17] 15.8% | viability, T/C [19] 112% | viability, T/C [20] 112% | viability, T/C [21] 108% | viability, T/C [22] 59.4% | viability, T/C [23] 12.6% | viability, T/C [25] 106% | viability, T/C [26] 119% | viability, T/C [27] 105% | viability, T/C [28] 41.2%
126 nM: IC50 (second compound 0.316 µM)
active: viability, T/C [18] 9.21% | viability, T/C [24] 7.61% | viability, T/C [29] 8.18% | viability, T/C [30] 7.39%
134 nM: IC50 (second compound 0.1 µM)
